Experimental data: patent US8513265B2, “[6,6] and [6,7]-bicyclic GPR119 G protein-coupled receptor agonists” (Bristol-Myers Squibb Company, priority 2011, dated 2013)
Where a name gives a salt, the structure may show the parent alone.

Target: T1, GPR119 G protein-coupled receptor (Homo sapiens, UniProt Q8TDV5)
T1 construct: expressed in transfected cells; host or cells: Flp-In-T-REx 293 cells, tetracycline induced
T1 sequence (Q8TDV5 1-335): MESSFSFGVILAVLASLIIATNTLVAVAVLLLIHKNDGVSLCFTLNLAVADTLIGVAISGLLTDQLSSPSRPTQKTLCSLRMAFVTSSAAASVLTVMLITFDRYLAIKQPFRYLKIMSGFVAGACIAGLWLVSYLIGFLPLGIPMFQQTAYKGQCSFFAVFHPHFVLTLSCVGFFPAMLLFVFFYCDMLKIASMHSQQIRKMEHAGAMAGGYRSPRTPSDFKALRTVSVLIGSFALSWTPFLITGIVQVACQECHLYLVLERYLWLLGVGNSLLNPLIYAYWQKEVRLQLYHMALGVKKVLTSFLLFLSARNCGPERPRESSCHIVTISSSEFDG
Experiment: Human Tet-Inducible cAMP Assay (hEC50, Table 1)
Assay type: cell-based
Set-up: IA: scale not given here
Conditions: for IA: IA not defined
Method: Human Tet-Inducible cAMP Assay
Cell lines using the Flp-In-T-REx 293 tetracycline inducible gene expression system are cultured in culture medium comprising the following components: DMEM#11965, 10% FBS, 2 mM L-glutamine, 200 ug/ml Hygromycin B, and 15 ug/ml blasticidin.
For cAMP assays, cells are plated on 96 well plates (e.g., BD Falcon: REF 353948, black side, clear bottom, TC surface) at a density of about 4.5×10^4 cells per well in growth medium containing 1.0 ug/ml tetracycline (1.0 mg/ml stock). The cells are then incubated for 48 hours at 37° C.
Following the incubation, the growth medium is removed from the wells and the wells rinsed (once) with the assay buffer included in the Hit Hunter cAMP kit (100 μl/well). Following the wash, 20 μl of assay buffer is added to each well, followed by addition of 10 μl of a 3× concentration compound working solution. The solution is then mixed. The final concentration range of compound is from about 10^−5M to about 10^−11M. The reagents are then incubated at 37° C. at 5% CO2 for 1 hour.
The manufacturer's protocol may be followed for cAMP determination. The Hit Hunter cAMP kit protocol is outlined for the HIT-T15 cAMP assays described above.

| Compound | EC50 [nM] | IA |
| --- | --- | --- |
| Cc1cc(C#N)ccc1Nc1ncnc2c1OCCN2C1CCN(C(=O)OC(C)C)CC1 [Example 134, Isopropyl 4-(4-(4-cyano-2-methylphenylamino)-6H-pyrimido[5,4-b][1,4]oxazin-8(7H)-yl)piperidine-1-carboxylate] | 163 | 0.59 |
| CC(C)OC(=O)N1CCC(N2C(=O)COc3c(Nc4cccnc4Cl)ncnc32)CC1 [Example 127, Isopropyl 4-(4-(2-chloropyridin-3-ylamino)-7-oxo-6H-pyrimido[5,4-b][1,4]oxazin-8(7H)-yl)piperidine-1-carboxylate] | 6180 | 0.52 |
| CC(C)(C)OC(=O)N1CCC(N2CCOc3c(Nc4ccc(S(C)(=O)=O)cc4Cl)ncnc32)CC1 [Example 7, tert-Butyl 4-(4-(2-chloro-4-(methylsulfonyl)phenylamino)-6H-pyrimido[5,4-b][1,4]oxazin-8(7H)-yl)piperidine-1-carboxylate] | 2.78 | 0.81 |
| Cc1ccc(Nc2ncnc3c2OCC(=O)N3C2CCN(C(=O)OC(C)C)CC2)cn1 [Example 72, iso-Propyl 4-(4-(6-methylpyridin-3-ylamino)-7-oxo-6H-pyrimido[5,4-b][1,4]oxazin-8(7H)-yl)piperidine-1-carboxylate] | 8580 | 0.34 |
| Cc1ccc(Nc2ncnc3c2OCC(=O)N3C2CCN(C(=O)OC(C)(C)C)CC2)cn1 [Example 69, tert-Butyl 4-(4-(6-methylpyridin-3-ylamino)-7-oxo-6H-pyrimido[5,4-b][1,4]oxazin-8(7H)-yl)piperidine-1-carboxylate] | 4310 | 0.35 |
| CC(C)OC(=O)N1CCC(N2CCOc3c(Nc4ccc5c(c4)OCO5)ncnc32)CC1 [Example 132, Isopropyl 4-(4-(benzo[d][1,3]dioxol-5-ylamino)-6H-pyrimido[5,4-b][1,4]oxazin-8(7H)-yl)piperidine-1-carboxylate] | 3400 | 0.37 |
| CS(=O)(=O)c1ccc(Nc2ncnc3c2OCCN3C2CCN(c3nc4ccccc4s3)CC2)c(F)c1 [Example 18, 8-(1-(Benzo[d]thiazol-2-yl)piperidin-4-yl)-N-(2-fluoro-4-(methylsulfonyl)phenyl)-7,8-dihydro-6H-pyrimido[5,4-b][1,4]oxazin-4-amine] | 198 | 0.46 |
| CC(C)(C)OC(=O)N1CCC(N2CCCOc3c(Nc4ccncc4)ncnc32)CC1 [Example 100, tert-Butyl 4-(4-(pyridin-4-ylamino)-7,8-dihydropyrimido[5,4-b][1,4]oxazepin-9(6H)-yl)piperidine-1-carboxylate] | 3450 | 0.53 |
| CCC(C)OC(=O)N1CCC(N2CCOc3c(Nc4ccc(S(C)(=O)=O)cc4F)ncnc32)CC1 (racemic) [Example 146, (±)-sec-Butyl 4-(4-(2-fluoro-4-(methylsulfonyl)phenylamino)-6H-pyrimido[5,4-b][1,4]oxazin-8(7 H)-yl)piperidine-1-carboxylate, TFA salt] | 8.52 | 0.88 |
| Cc1ncccc1Nc1cccc2c1OCCN2C1CCN(C(=O)OC(C)(C)C)CC1 [Example 76, tert-Butyl 4-(8-(2-methylpyridin-3-ylamino)-2H-benzo[b][1,4]oxazin-4 (3H)-yl)piperidine-1-carboxylate] | 3390 | 0.38 |
| CC(C)OC(=O)N1CCC(N2C(=O)CCc3c(Nc4ccc(S(C)(=O)=O)cc4F)ncnc32)CC1 [Example 118, Isopropyl 4-(4-(2-fluoro-4-(methylsulfonyl)phenylamino)-7-oxo-6,7-dihydropyrido[2,3-d]pyrimidin-8 (5H)-yl)piperidine-1-carboxylate] | 179 | 0.63 |
| CC(C)(C)OC(=O)N1CCC(N2CCOc3c(Nc4c(Cl)cncc4Cl)ncnc32)CC1 [Example 55, tert-Butyl 4-(4-(3,5-dichloropyridin-4-ylamino)-6H-pyrimido[5,4-b][1,4]oxazin-8(7H)-yl)piperidine-1-carboxylate] | 11.1 | 0.72 |
| Cc1ncccc1Oc1ncnc2c1OCCN2C1CCN(C(=O)OC(C)C)CC1 [Example 25, iso-Propyl 4-(4-(2-methylpyridin-3-yloxy)-6H-pyrimido[5,4-b][1,4]oxazin-8(7H)-yl)piperidine-1-carboxylate] | 4520 | 0.27 |
| CS(=O)(=O)c1ccc(Nc2ncnc3c2OCCN3C2CCN(C(=O)OCC(F)(F)F)CC2)c(F)c1 [Example 145, 2,2,2-Trifluoroethyl 4-(4-(2-fluoro-4-(methylsulfonyl)phenylamino)-6H-pyrimido[5,4-b][1,4]oxazin-8(7H)-yl)piperidine-1-carboxylate, TFA salt] | 11.4 | 0.87 |
| CC(C)OC(=O)N1CCC(N2CCOc3c(Nc4ccncc4Cl)ncnc32)CC1 [Example 120, Isopropyl 4-(4-(3-chloropyridin-4-ylamino)-6H-pyrimido[5,4-b][1,4]oxazin-8(7H)-yl)piperidine-1-carboxylate] | 181 | 0.45 |
| CC(C)(C)OC(=O)N1CCC(N2CCOc3c(Nc4ccc(-n5ccnc5)cc4Cl)ncnc32)CC1 [Example 154, tert-Butyl 4-(4-(2-chloro-4-(1H-imidazol-1-yl)phenylamino)-6H-pyrimido[5,4-b][1,4]oxazin-8(7H)-yl)piperidine-1-carboxylate] | 12.9 | 0.65 |
| COc1ccc(Nc2ncnc3c2OCCN3C2CCN(C(=O)OC(C)C)CC2)cc1 [Example 128, Isopropyl 4-(4-(4-methoxyphenylamino)-6H-pyrimido[5,4-b][1,4]oxazin-8(7H)-yl)piperidine-1-carboxylate] | 3590 | 0.7 |
| CC(C)(C)OC(=O)N1CCC(N2CCOc3c(Nc4ccc(C(N)=O)cc4Cl)ncnc32)CC1 [Example 47, tert-Butyl 4-(4-(4-carbamoyl-2-chlorophenylamino)-6H-pyrimido[5,4-b][1,4]oxazin-8(7H)-yl)piperidine-1-carboxylate] | 163 | 0.78 |
| CC(C)(C)OC(=O)N1CCC(N2C(=O)COc3c(Nc4ccc(S(C)(=O)=O)cc4F)ncnc32)CC1 [Example 26, tert-Butyl 4-(4-(2-fluoro-4-(methylsulfonyl)phenylamino)-7-oxo-6H-pyrimido[5,4-b][1,4]oxazin-8(7H)-yl)piperidine-1-carboxylate] | 8.06 | 0.51 |
| CC(C)OC(=O)N1CCC(N2CCOc3c(Nc4ccc(C(N)=O)cc4Cl)ncnc32)CC1 [Example 49, iso-Propyl 4-(4-(4-carbamoyl-2-chlorophenylamino)-6H-pyrimido[5,4-b][1,4]oxazin-8(7H)-yl)piperidine-1-carboxylate] | 196 | 0.67 |
| CC(C)(OC(=O)N1CCC(N2CCOc3c(Nc4ccc(S(C)(=O)=O)cc4F)ncnc32)CC1)C(F)(F)F [Example 143] | 9.74 | 0.41 |
| COC(=O)c1ccc(Nc2ncnc3c2OCCN3C2CCN(C(=O)OC(C)(C)C)CC2)c(Cl)c1 [Example 45, tert-Butyl 4-(4-(2-chloro-4-(methoxycarbonyl)phenylamino)-6H-pyrimido[5,4-b][1,4]oxazin-8(7H)-yl)piperidine-1-carboxylate] | 158 | 0.63 |
| CC(C)(C)OC(=O)N1CCC(N2CCCOc3c(Nc4c(Cl)cncc4Cl)ncnc32)CC1 [Example 89, tert-Butyl 4-(4-(3,5-dichloropyridin-4-ylamino)-7,8-dihydropyrimido[5,4-b][1,4]oxazepin-9(6H)-yl)piperidine-1-carboxylate] | 10.3 | 0.65 |
| COc1ccc(Nc2ncnc3c2OCCN3C2CCN(C(=O)OC(C)C)CC2)c(F)c1 [Example 15, iso-Propyl 4-(4-(2-fluoro-4-methoxyphenylamino)-6H-pyrimido[5,4-b][1,4]oxazin-8(7H)-yl)piperidine-1-carboxylate] | 188 | 0.48 |
